Reference: patent US10870684B2, “Disintegrin variants and pharmaceutical uses thereof” (National Cheng Kung University, priority 2014, dated 2020)

Test system: platelet aggregation that is mediated by αIIbβ3
Experiment: Inhibition of ADP-induced platelet aggregation in platelet-rich plasma
Assay type: cell-based
Settings: PRP
Procedure: Disintegrin (Rho) variants were also tested for their ability to inhibit platelet aggregation that is mediated by αIIbβ3. Venous blood (9 parts) samples from healthy donors who had not received any medication for at least two weeks were collected in 3.8% sodium citrate (1 part). Blood samples were centrifuged at 150×g for 10 min to obtain platelet-rich plasma (PRP) and allowed to stand for 5 min, and PRP was collected. The platelet-poor plasma (PPP) was prepared from the remaining blood by centrifuging at 2000×g for 25 min. The PPP platelet count was measured on a hematology analyzer and diluted to 250,000 platelets/μl. A solution of 190 μl of PRP and 10 μl of either Rho or PBS buffer were incubated for 5 min in a Hema Tracer 601 aggregometer at 37° C. Ten microliters of 200 μM adenosine diphosphate (ADP) were further added to monitor the response of platelet aggregation by light transmission.

Substance “rhodostomin [Rho wild-type, reference compound]” has an IC50 of 83.2 nM.
